Patent publication US8609719B2, “Propargylated aminoindans, processes for preparation, and uses thereof” (priority 2006, dated 2013)
Counter-ions that a name gives are not always drawn. Like-named read-outs stand apart in the source and are kept apart here.

Target: T1, MAO-B (Rattus norvegicus, UniProt P19643)
T1 construct: from tissue; host or cells: brain, liver and intestine (duodenum) of dosed rats
T1 sequence (P19643 1-520): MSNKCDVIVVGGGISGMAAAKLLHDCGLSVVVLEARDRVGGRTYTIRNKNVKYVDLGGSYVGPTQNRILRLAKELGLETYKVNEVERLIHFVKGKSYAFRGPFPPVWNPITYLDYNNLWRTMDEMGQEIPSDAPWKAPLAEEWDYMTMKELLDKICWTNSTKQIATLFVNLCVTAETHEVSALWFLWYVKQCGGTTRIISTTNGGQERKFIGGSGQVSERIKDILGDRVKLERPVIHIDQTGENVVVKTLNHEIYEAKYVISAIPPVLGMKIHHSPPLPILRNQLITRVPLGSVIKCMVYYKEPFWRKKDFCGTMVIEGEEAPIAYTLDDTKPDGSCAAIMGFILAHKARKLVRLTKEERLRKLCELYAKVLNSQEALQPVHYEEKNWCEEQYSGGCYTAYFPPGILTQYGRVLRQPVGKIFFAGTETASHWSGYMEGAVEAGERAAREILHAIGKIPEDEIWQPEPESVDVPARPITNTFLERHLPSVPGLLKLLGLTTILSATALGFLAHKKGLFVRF
Experiment: MAO-B inhibition in rat organs after chronic P.O. administration
Type: in vivo
Conditions: po, 7 days, 2 hours after last dose; for inhibition at 37.5 µmol/kg: 37.5 μmol/kg P.O. daily; for inhibition at 75 µmol/kg: 75 μmol/kg P.O. daily; for inhibition at 150 µmol/kg: 150 μmol/kg P.O. daily
Procedure: 30 rats were separated randomly into 5 testing groups of 6 rats each. Group 1 was the control group to which no drug was administered. Ethyl-hydroxymethyl-carbamic acid 3-R-(prop-2-ynylamino)-indan-5-yl ester fumarate (2:1) was administered to groups 2, 3, 4 in dosages of 150, 75, and 37.5 μmol/kg respectively, daily, perorally (“P.O.”) for seven consecutive days. Water was used as a vehicle.
Rats were sacrificed, out of sight of the other rats, 2 hours after the last administration. Brains were removed into Petri dishes on ice, the cerebellums were […], and the brains cut into halves for analysis. Livers and intestines were removed for MAO determination. Organs were homogenated for enzyme inhibition analysis.
The MAO inhibition after administration of ethyl-hydroxymethyl-carbamic acid 3-R-(prop-2-ynylamino)-indan-5-yl ester fumarate (2:1) in various organs is listed in Table 4 calculated in percent relative to the control group.

[1] = read-out: Brain MAO-B inhibition relative to control
[2] = read-out: Duodenum MAO-B inhibition relative to control
[3] = read-out: Liver MAO-B inhibition relative to control

Compound `C#CCN[C@@H]1CCc2ccc(OC(=O)N(CC)CO)cc21` [R-HCPAI, Ethyl-hydroxymethyl-carbamic acid 3-R-(prop-2-ynylamino)-indan-5-yl ester fumarate (2:1)] has an inhibition at 37.5 µmol/kg [1] of 17%, an inhibition at 37.5 µmol/kg [2] of 7% and an inhibition at 37.5 µmol/kg [3] of 15%. For the same compound, the inhibition at 75 µmol/kg [1] was 62%, the inhibition at 75 µmol/kg [2] was 31% and the inhibition at 75 µmol/kg [3] was 18%. It also gave an inhibition at 150 µmol/kg [1] of 83%, an inhibition at 150 µmol/kg [2] of 35% and an inhibition at 150 µmol/kg [3] of 34%.
